Measurements published in patent publication US4780281A, “Method for assay of peroxidase enzyme or reducing substrate activity” (Wayne State University, priority 1985, dated 1988).

Target: T1, Horseradish peroxidase (HRP) (Armoracia rusticana, UniProt P00433)
T1 construct: purchased Sigma Chemical Corporation Type VI
T1 sequence (P00433 31-338 limits assumed): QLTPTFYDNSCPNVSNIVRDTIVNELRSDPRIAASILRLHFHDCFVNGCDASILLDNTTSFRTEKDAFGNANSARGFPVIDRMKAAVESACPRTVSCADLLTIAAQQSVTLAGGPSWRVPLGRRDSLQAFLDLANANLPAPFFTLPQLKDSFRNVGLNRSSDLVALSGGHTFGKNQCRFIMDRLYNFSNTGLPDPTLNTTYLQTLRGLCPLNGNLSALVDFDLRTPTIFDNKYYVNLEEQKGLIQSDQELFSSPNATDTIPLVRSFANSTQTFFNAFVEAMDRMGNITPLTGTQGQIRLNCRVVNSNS
Experiment: Reducing substrate specificity assay (HRP-catalysed reduction of PPHP to PPA, HPLC)
Assay type: biochemical
Settings: 60 nM HRP, 200 microM reducing substrate, 100 microM PPHP, 0.1 M potassium citrate pH 5.5, 0.2 mM Tween-20, 25° C., 6 minutes, triplicate
Procedure: Incubations were performed in triplicate with a 25° C. shaker bath in 16×150 mm disposable glass test tubes. 60 nM HRP was incubated at 25° C. in 0.1 M potassium citrate buffer, […] containing 0.2 mM Tween 20, with 100 microM PPHP and 200 microM potential reducing substrate. The index value is defined as, Index=concentration PPA/(concentration PPA+concentration PPHP). Most reducing substrates were prepared daily as 8 mM stocks in either water, methanol, or methanol:water (1:1 v/v). DPBF was dissolved in acetone. Uric acid was dissolved in DMSO. Epinephrine required titration with dilute hydrochloric acid prior to dissolution in methanol. Indoleacetic acid, tryptophan, cysteine, and methionine were titrated with dilute potassium hydroxide prior to dissolution in methanol:water (1:1 v/v).
For the data in Table 1 hereinafter, reducing substrates (50 microliters of 8 mM stocks--see Table 1 for preparation) were transferred into 1.9 ml of 0.1 M potassium citrate buffer, pH 5.5, containing 0.2 mM Tween-20 and allowed to thermally equilibrate for 10 minutes. HRP (24 microl of a 5 microM stock) was added to each trial and preincubated for three minutes prior to the addition of PPHP (25 microl of 8 mM stock in methanol). Incubations were stopped at 6 minutes by pouring mixtures onto Baker SPE System columns (3 ml octyldecylsilyl, from J. T. Baker & Co.). The columns were prepared prior to use by passing 3×3 ml aliquots of water through the columns with the Baker SPE vacuum system. At the stop time, an individual trial was poured onto the column and aspirated to near dryness. Each individual trial was set aside until the reminder of the trials were treated in the same manner. After all incubation trials were partitioned onto the SPE columns, each individual incubation tube was washed with 2 ml of 0.2 mM Tween 20 in distilled water and poured onto the corresponding SPE column. This Tween 20/water wash was aspirated to near dryness with vacuum. Analytes were eluted into 12×76 mm disposable glass test tubes with 2×1 ml aliquots of methanol (HPLC grade, Fisher Scientific Co.). The sample collection rack for the Baker 10 SPE System was modified to accommodate these 12 mm diameter tubes. The SPE columns were aspirated dry at this point and discarded. An internal chromatographic standard of p-nitrobenzyl alcohol (25 microl of 8 mM stock solution in methanol) was added to each methanol eluent, mixed by vortexing, and then clarified by filtration through a 0.45 micron nylon Swinney type filter (Rainin Instrument Corp.). The filtered eluents were used directly for chromatographic analysis.
The Initial incubation conditions were 0.1 M potassium citrate buffer, pH 5.5, with 0.2 mM Tween 20, 200 microM reducing substrate, 60 nM HRP and […] PPHP (structure 1).
Quantitation was determined by adding an internal standard (p-nitrobenzyl alcohol: annotated as I.S. on chromatograms) and ratioing peak areas. Chromatograms are 40 microliters injections onto a 5 micron Zorbax octylsilyl reverse-phase column (DuPont Instrument Corp.) with an isocratic elution mobile of 56% v/v methanol in water at 2 ml per min. U.V. monitoring was with a fixed 254 nm detector (Varian 5000, Varian Instrument Corp.). Vertical numbers are associated with peak retention times in minutes (the integrator used was a Vista 402 System, Varian Instruments).
Analyte concentrations were calculated by an internal standard method of calculation. This required individual incubation chromatograms to be compared to a calibration chromatogram generated by chromatographing a 40 microliter sample aliquot of a solution of PPHP as described under calculations.

| Structure (SMILES) | Index = concentration PPA/(concentration PPA+concentration PPHP) |
| --- | --- |
| O=C(O)CCCCC1CCSS1 (racemic) [Lipoic Acid, d,1-thiotic acid] | 0.06 ± 0.01 |
| Nc1ccccc1 [Aniline, aniline] | 0.97 ± 0.01 |
| O=C1O[C@H]([C@@H](O)CO)C(O)=C1O [Ascorbic Acid, 1-ascorbic acid] | 0.50 ± 0.00 |
| COc1ccc(O)c(C(C)(C)C)c1 [BHA, butylated hydroxyanisole] | 0.56 ± 0.01 |
| Cc1cc(C(C)(C)C)c(O)c(C(C)(C)C)c1 [BHT, butylated hydroxytoluene] | 0.19 ± 0.03 |
| N[C@@H](CS)C(=O)O [Cysteine, 1-cysteine] | 0.06 ± 0.01 |
| c1ccc(-c2oc(-c3ccccc3)c3ccccc23)cc1 [DPBF, 1,3-diphenylisobenzofuran] | 0.06 ± 0.01 |
| CCN(CC)C(=S)S [Diethyldithiocarbamate, diethyldithiocarbamic acid] | 0.72 ± 0.02 |
| CNC[C@H](O)c1ccc(O)c(O)c1 [Epinephrin, d,1-epinephrine] | 0.39 ± 0.01 |
| N[C@@H](CCC(=O)N[C@@H](CS)C(=O)NCC(=O)O)C(=O)O [Glutathione, reduced glutathione] | 0.07 ± 0.01 |
| COc1ccccc1O [Guaniacol, guaiacol] | 0.97 ± 0.01 |
| Oc1ccc(O)cc1 [Hydroquinone, hydroquinone] | 0.97 ± 0.01 |
| O=C(O)Cc1c[nH]c2ccccc12 [Indoleacetic Acid, indole-3-acetic acid] | 0.14 ± 0.01 |
| [I-].[K+] [Iodide, potassium iodide] | 0.97 ± 0.02 |
| CSCC[C@H](N)C(=O)O [Methionine, d,1-methionine] | 0.05 ± 0.01 |
| NC(=O)C1=CN([C@@H]2O[C@H](COP(=O)(O)OP(=O)(O)OC[C@H]3O[C@@H](n4cnc5c(N)ncnc54)[C@H](O)[C@@H]3O)[C@@H](O)[C@H]2O)C=CC1 [NADH, reduced nicotinamide adenine dinucleotide] | 0.05 ± 0.00 |
| NC(=O)C1=CN([C@@H]2O[C@H](COP(=O)(O)OP(=O)(O)OC[C@H]3O[C@@H](n4cnc5c(N)ncnc54)[C@H](OP(=O)(O)O)[C@@H]3O)[C@@H](O)[C@H]2O)C=CC1 [NADPH, reduced nicotinamide adenine dinucleotide phosphate] | 0.06 ± 0.01 |
| N[C@@H](Cc1c[nH]c2ccccc12)C(=O)O [Tryptophan, 1-tryptophan] | 0.13 ± 0.04 |
| O=c1[nH]c(=O)c2[nH]c(=O)[nH]c2[nH]1 [Uric Acid, uric acid] | 0.96 ± 0.00 |

Same assay, conditions: 200 microM reducing substrate, 60 nM HRP, pH 5.5

| Structure (SMILES) | reducing substrate quality for HRP (FIG. 1) |
| --- | --- |
| COc1ccc(O)c(C(C)(C)C)c1 [BHA, butylated hydroxyanisole] | moderate |
| N[C@@H](Cc1c[nH]c2ccccc12)C(=O)O [Tryptophan, 1-tryptophan] | poor |

Target: T2, Prostaglandin H Synthase (Ovis aries, UniProt P05979)
T2 sequence (P05979 25-600): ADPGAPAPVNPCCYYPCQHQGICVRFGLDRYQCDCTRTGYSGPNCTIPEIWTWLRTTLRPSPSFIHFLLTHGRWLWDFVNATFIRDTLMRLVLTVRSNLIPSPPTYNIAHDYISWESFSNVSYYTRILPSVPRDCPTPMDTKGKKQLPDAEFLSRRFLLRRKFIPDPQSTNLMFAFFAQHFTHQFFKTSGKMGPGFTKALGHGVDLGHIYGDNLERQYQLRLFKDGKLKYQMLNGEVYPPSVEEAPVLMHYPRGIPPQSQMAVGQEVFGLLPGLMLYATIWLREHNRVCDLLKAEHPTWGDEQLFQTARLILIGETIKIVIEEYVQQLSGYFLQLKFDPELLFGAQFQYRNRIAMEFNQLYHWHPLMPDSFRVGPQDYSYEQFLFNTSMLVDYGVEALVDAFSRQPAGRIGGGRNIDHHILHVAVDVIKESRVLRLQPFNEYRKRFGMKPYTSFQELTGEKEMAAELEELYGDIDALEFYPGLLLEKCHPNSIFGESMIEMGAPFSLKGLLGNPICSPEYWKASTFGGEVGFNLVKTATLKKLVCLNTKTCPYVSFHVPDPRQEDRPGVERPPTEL
Experiment: Reducing substrate efficiency for PPHP reduction, conditions as for Table 1
Assay type: biochemical
Settings: not given

| Structure (SMILES) | reducing substrate for PPHP reduction by prostaglandin H synthase |
| --- | --- |
| OC1C=Cc2c(cc3ccc4cccc5ccc2c3c45)C1O (stereo not drawn) [7,8-dihydroxy-7,8-dihydrobenzo[a]pyrene] | not reducing substrates |
| c1ccc(-c2oc(-c3ccccc3)c3ccccc23)cc1 [DPBF, 1,3-diphenylisobenzofuran] | not reducing substrates |
| c1ccc2c(c1)cc1ccc3cccc4ccc2c1c34 [benzo[a]yrene] | not reducing substrates |

Same assay, conditions: Prostaglandin H synthase, under the conditions for Table 1

| Structure (SMILES) | Index of Efficiency of Reducing Substrates |
| --- | --- |
| Cc1c(CC(=O)O)c2cc(O)ccc2n1C(=O)c1ccc(Cl)cc1 [5-Hydroxy-indomethacin] | .34 |
| CC(=O)Oc1ccccc1C(=O)O [Aspirin] | .04 |
| O=C(O)Cc1ccccc1Nc1c(Cl)cccc1Cl [Diclofenac] | .50 |
| CNC[C@H](O)c1ccc(O)c(O)c1 [Epinephrin, d,1-epinephrine] | .92 |
| O=C(O)c1ccccc1Nc1cccc(C(F)(F)F)c1 [Flufenamate] | .68 |
| CC(C(=O)O)c1ccc(-c2ccccc2)c(F)c1 (stereo not drawn) [Flurbiprofen] | .12 |
| CC(C)Cc1ccc(C(C)C(=O)O)cc1 (stereo not drawn) [Ibuprofen] | .12 |
| Cc1cc(NC(=O)C2=C(O)c3ccccc3S(=O)(=O)N2C)no1 [Isoxicam] | .25 |
| COc1ccc2c(c1)c(C(C)C(=O)O)c(C)n2Cc1ccc(SC)cc1 (stereo not drawn) [MK-410] | .26 |
| CC(C)(C)c1cc(I)c(O)c(CN)c1 [MK-447] | .72 |
| Cc1ccc(Cl)c(Nc2ccccc2C(=O)O)c1Cl [Meclofenamate] | .35 |
| CSc1ccccc1 [Methylphenyl Sulfide] | .50 |
| CCCCC1C(=O)NN(c2ccccc2)C1=O (stereo not drawn) [Monophenylbutazone] | .23 |
| CC1=NN(CCOc2ccc3ccccc3c2)C(=O)C1 [Nafazatrom] | .80 |
| CCCCC1C(=O)N(c2ccccc2)N(c2ccc(O)cc2)C1=O (stereo not drawn) [Oxyphenylbutazone] | .71 |
| CCCCC1C(=O)N(c2ccccc2)N(c2ccccc2)C1=O [Phenylbutazone] | .23 |
| O=C(O)c1ccccc1O [Salicylic Acid] | .06 |
| CSc1ccc(/C=C2/C(C)=C(CC(=O)O)c3cc(F)ccc32)cc1 [Sulindac Sulfide] | .96 |
